In patent US10377753B2, “Substituted 4-azaindoles and their use as GluN2B receptor modulators” (Janssen Pharmaceutica NV, priority 2015, dated 2019):
Structures can show the parent of a compound that is named as a salt.

Molecular target: cloned human NR1/NR2B ion channels (Homo sapiens (Human), UniProt Q05586+Q13224)
Assay: HNR2BC: effects of test articles on cloned human NR1/NR2B ion channels expressed in mammalian cells (FLIPR calcium flux)
Format: cell-based
Settings: cloned human NR1/NR2B, Table 5
In short: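 In a stable Tet-On-induced cell line expressing human GluN1/GluN2B, Calcium 5-loaded cells were preincubated 5 min with compound, then stimulated 5 min with glutamate at ~EC80 plus 10 μM glycine, in pH 7.4 HEPES buffer. FLIPR calcium fluorescence was normalized to control wells.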

cloned human NR1/NR2B ion channels, sequence (Q13224 27-1484, other chains not shown): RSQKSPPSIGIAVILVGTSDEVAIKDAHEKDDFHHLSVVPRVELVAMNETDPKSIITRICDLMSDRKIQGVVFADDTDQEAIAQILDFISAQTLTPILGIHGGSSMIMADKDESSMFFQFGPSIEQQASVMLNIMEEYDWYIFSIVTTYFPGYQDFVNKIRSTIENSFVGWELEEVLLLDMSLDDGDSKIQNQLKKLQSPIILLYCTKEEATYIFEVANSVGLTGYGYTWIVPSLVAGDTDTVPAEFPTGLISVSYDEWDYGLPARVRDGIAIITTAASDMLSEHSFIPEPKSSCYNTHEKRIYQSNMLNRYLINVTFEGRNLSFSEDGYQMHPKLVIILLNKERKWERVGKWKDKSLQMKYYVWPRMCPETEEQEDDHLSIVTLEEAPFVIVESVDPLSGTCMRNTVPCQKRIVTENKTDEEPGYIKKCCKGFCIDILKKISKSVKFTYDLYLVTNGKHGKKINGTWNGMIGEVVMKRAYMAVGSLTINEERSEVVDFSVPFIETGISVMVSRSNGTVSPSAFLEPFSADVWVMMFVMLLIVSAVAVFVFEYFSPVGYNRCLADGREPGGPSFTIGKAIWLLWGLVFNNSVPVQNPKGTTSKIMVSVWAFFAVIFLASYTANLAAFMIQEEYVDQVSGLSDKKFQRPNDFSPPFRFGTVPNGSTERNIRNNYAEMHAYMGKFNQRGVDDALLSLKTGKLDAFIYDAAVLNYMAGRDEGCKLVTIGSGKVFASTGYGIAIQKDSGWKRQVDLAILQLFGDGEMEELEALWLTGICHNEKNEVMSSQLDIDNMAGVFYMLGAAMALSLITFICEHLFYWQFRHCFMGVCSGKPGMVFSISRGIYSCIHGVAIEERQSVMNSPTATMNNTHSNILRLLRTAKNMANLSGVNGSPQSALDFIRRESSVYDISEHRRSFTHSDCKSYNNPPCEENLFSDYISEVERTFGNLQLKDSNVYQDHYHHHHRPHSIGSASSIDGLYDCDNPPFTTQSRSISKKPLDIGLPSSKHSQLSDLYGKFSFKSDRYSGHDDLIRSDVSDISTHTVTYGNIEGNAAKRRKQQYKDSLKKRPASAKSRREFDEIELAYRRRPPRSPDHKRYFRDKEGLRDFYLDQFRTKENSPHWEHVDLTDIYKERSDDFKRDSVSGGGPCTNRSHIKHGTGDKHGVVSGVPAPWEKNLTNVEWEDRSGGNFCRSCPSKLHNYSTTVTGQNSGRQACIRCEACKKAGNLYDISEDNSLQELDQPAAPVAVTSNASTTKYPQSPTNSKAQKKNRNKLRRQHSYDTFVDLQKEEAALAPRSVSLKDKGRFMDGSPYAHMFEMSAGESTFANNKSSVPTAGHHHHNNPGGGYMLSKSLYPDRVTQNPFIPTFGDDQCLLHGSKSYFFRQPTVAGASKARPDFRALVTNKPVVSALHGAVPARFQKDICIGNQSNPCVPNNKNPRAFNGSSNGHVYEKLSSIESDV

Row | IC50 [nM] | SMILES
1 | 794 | Cc1cc(-c2cnc3ccn(CCn4cccn4)c3c2)ccc1F [Example 181, 6-(4-Fluoro-3-methyl-phenyl)-1-(2-pyrazol-1-ylethyl)pyrrolo[3,2-b]pyridine trifluoroacetate salt]
2 | 3980 | O=C(Cn1cc(F)c2ncc(-c3ccc(Cl)s3)cc21)N1CCC1 [Example 182, 1-(Azetidin-1-yl)-2-[6-(5-chloro-2-thienyl)-3-fluoro-pyrrolo[3,2-b]pyridin-1-yl]ethanone]
3 | 31.6 | Cc1cc(-c2cnc3ccn(Cc4ncccn4)c3c2)ccc1F [Example 183, 6-(4-Fluoro-3-methyl-phenyl)-1-(pyrimidin-2-ylmethyl)pyrrolo[3,2-b]pyridine trifluoroacetate salt]
4 | 100 | Cc1cc(-c2cnc3c(F)cn(CC(=O)N4CC(F)(F)C4)c3c2)ccc1F [Example 185, 1-(3,3-Difluoroazetidin-1-yl)-2-[3-fluoro-6-(4-fluoro-3-methyl-phenyl)pyrrolo[3,2-b]pyridin-1-yl]ethanone]
5 | 39.8 | Cc1cc(-c2cnc3ccn(CC(=O)C4CC4)c3c2)ccc1F [Example 186, 1-Cyclopropyl-2-[6-(4-fluoro-3-methyl-phenyl)pyrrolo[3,2-b]pyridin-1-yl]ethanone trifluoroacetate salt]
6 | 50.1 | Cc1cc(-c2cnc3ccn(CC(=O)C(C)C)c3c2)ccc1F [Example 187, 1-[6-(4-Fluoro-3-methyl-phenyl)pyrrolo[3,2-b]pyridin-1-yl]-3-methyl-butan-2-one trifluoroacetate salt]
7 | 50.1 | Cc1cc(-c2cnc3ccn(CC(=O)N4CCC(O)CC4)c3c2)ccc1F [Example 188, 2-[6-(4-Fluoro-3-methyl-phenyl)pyrrolo[3,2-b]pyridin-1-yl]-1-(4-hydroxy-1-piperidyl)ethanone trifluoroacetate salt]
8 | 251 | COC1CCN(C(=O)Cn2ccc3ncc(-c4ccc(F)c(C)c4)cc32)CC1 [Example 190, 2-[6-(4-Fluoro-3-methyl-phenyl)pyrrolo[3,2-b]pyridin-1-yl]-1-(4-methoxy-1-piperidyl)ethanone trifluoroacetate salt]
9 | 316 | Cc1cc(-c2cnc3ccn(CC(=O)N4CCC(F)CC4)c3c2)ccc1F [Example 191, 2-[6-(4-Fluoro-3-methyl-phenyl)pyrrolo[3,2-b]pyridin-1-yl]-1-(4-fluoro-1-piperidyl)ethanone trifluoroacetate salt]
10 | 79.4 | Cc1cc(-c2cnc3ccn(CC(=O)N4CCC(CF)CC4)c3c2)ccc1F [Example 192, 2-[6-(4-Fluoro-3-methyl-phenyl)pyrrolo[3,2-b]pyridin-1-yl]-1-[4-(fluoromethyl)-1-piperidyl]ethanone trifluoroacetate salt]
11 | 1580 | Cc1cc(-c2cnc3ccn(CC(=O)N4CCOC(C)(C)C4)c3c2)ccc1F [Example 197, 1-(2,2-Dimethylmorpholin-4-yl)-2-[6-(4-fluoro-3-methyl-phenyl)pyrrolo[3,2-b]pyridin-1-yl]ethanone trifluoroacetate salt]
12 | 251 | Cc1cc(-c2cnc3ccn(CC(=O)N4CCCC4(C)C)c3c2)ccc1F [Example 200, 1-(2,2-Dimethylpyrrolidin-1-yl)-2-[6-(4-fluoro-3-methyl-phenyl)pyrrolo[3,2-b]pyridin-1-yl]ethanone trifluoroacetate salt]
13 | 3980 | Cc1cc(-c2cnc3ccn(CC(=O)N4CC[C@@H](F)C4)c3c2)ccc1F [Example 201, 2-[6-(4-Fluoro-3-methyl-phenyl)pyrrolo[3,2-b]pyridin-1-yl]-1-[(3R)-3-fluoropyrrolidin-1-yl]ethanone trifluoroacetate salt]
14 | 126 | CC1(O)CN(C(=O)Cn2ccc3ncc(-c4ccc(F)cc4)cc32)C1 [Example 202, 2-[6-(4-Fluorophenyl)pyrrolo[3,2-b]pyridin-1-yl]-1-(3-hydroxy-3-methyl-azetidin-1-yl)ethanone]
15 | 398 | O=C(Cn1ccc2ncc(-c3ccc(F)cc3)cc21)N1CC(O)(C(F)(F)F)C1 [Example 203, 2-[6-(4-Fluorophenyl)pyrrolo[3,2-b]pyridin-1-yl]-1-[3-hydroxy-3-(trifluoromethyl)azetidin-1-yl]ethanone]
16 | 1580 | O=C(Cn1ccc2ncc(-c3ccc(F)cc3)cc21)N1CC(F)C1 [Example 204, 1-(3-Fluoroazetidin-1-yl)-2-[6-(4-fluorophenyl)pyrrolo[3,2-b]pyridin-1-yl]ethanone]
17 | 50.1 | CN(C(=O)Cn1ccc2ncc(-c3ccc(F)cc3)cc21)C1CC1 [Example 205, N-Cyclopropyl-2-[6-(4-fluorophenyl)pyrrolo[3,2-b]pyridin-1-yl]-N-methyl-acetamide]
18 | 316 | O=C(Cn1ccc2ncc(-c3ccc(F)cc3)cc21)N1CC(CO)C1 [Example 206, 2-[6-(4-Fluorophenyl)pyrrolo[3,2-b]pyridin-1-yl]-1-[3-(hydroxymethyl)azetidin-1-yl]ethanone]
19 | 316 | COC1CN(C(=O)Cn2ccc3ncc(-c4ccc(F)cc4)cc32)C1 [Example 207, 2-[6-(4-Fluorophenyl)pyrrolo[3,2-b]pyridin-1-yl]-1-(3-methoxyazetidin-1-yl)ethanone]
20 | 316 | Cc1cc(-c2cnc3ccn(CC(=O)N4CC5(CC5)C4)c3c2)ccc1F [Example 208, 1-(5-Azaspiro[2.3]hexan-5-yl)-2-[6-(4-fluoro-3-methyl-phenyl)pyrrolo[3,2-b]pyridin-1-yl]ethanone trifluoroacetate salt]

Row | IC50 [nM] | SMILES
21 | 200 | Cc1cc(-c2cnc3ccn(CC(=O)N4CCC(C)(O)CC4)c3c2)ccc1F [Example 209, 2-[6-(4-Fluoro-3-methyl-phenyl)pyrrolo[3,2-b]pyridin-1-yl]-1-(4-hydroxy-4-methyl-1-piperidyl)ethanone trifluoroacetate salt]
22 | 398 | O=C(Cn1ccc2ncc(-c3ccc(F)cc3)cc21)N1CC(O)C1 [Example 211, 2-[6-(4-Fluorophenyl)pyrrolo[3,2-b]pyridin-1-yl]-1-(3-hydroxyazetidine-1-yl)ethanone]
23 | 316 | N#CC1CN(C(=O)Cn2ccc3ncc(-c4ccc(F)cc4)cc32)C1 [Example 212, 1-[2-[6-(4-Fluorophenyl)pyrrolo[3,2-b]pyridin-1-yl]acetyl]azetidine-3-carbonitrile]
24 | 631 | O=C(Cn1ccc2ncc(-c3ccc(F)cc3)cc21)N1CC(F)(F)C1 [Example 213, 1-(3,3-Difluoroazetidin-1-yl)-2-[6-(4-fluorophenyl)pyrrolo[3,2-b]pyridin-1-yl]ethanone]
25 | 100 | CC1CN(C(=O)Cn2ccc3ncc(-c4ccc(F)cc4)cc32)C1 [Example 214, 2-[6-(4-Fluorophenyl)pyrrolo[3,2-b]pyridin-1-yl]-1-(3-methylazetidin-1-yl)ethanone]
26 | 158 | CC1(C)CN(C(=O)Cn2ccc3ncc(-c4ccc(F)cc4)cc32)C1 [Example 215, 1-(3,3-Dimethylazetidin-1-yl)-2-[6-(4-fluorophenyl)pyrrolo[3,2-b]pyridin-1-yl]ethanone]
27 | 1260 | O=C1CCN(C(=O)Cn2ccc3ncc(-c4ccc(F)cc4)cc32)C1 [Example 216, 1-[2-[6-(4-Fluorophenyl)pyrrolo[3,2-b]pyridin-1-yl]acetyl]pyrrolidin-3-one trifluoroacetate salt]
28 | 316 | O=C(Cn1ccc2ncc(-c3ccc(F)cc3)cc21)N1CCC(F)(F)C1 [Example 217, 1-(3,3-Difluoropyrrolidin-1-yl)-2-[6-(4-fluorophenyl)pyrrolo[3,2-b]pyridin-1-yl]ethanone]
29 | 501 | Cc1cccc(-c2cnc3ccn(CC(=O)C4CC4)c3c2)c1 [Example 219, 1-Cyclopropyl-2-[6-(m-tolyl)pyrrolo[3,2-b]pyridin-1-yl]ethanone]
30 | 50.1 | O=C(Cn1ccc2ncc(-c3ccccc3)cc21)C1CC1 [Example 220, 1-Cyclopropyl-2-(6-phenylpyrrolo[3,2-b]pyridin-1-yl)ethanone]
31 | 79.4 | O=C(Cn1ccc2ncc(-c3cccc(F)c3)cc21)C1CC1 [Example 221, 1-Cyclopropyl-2-[6-(3-fluorophenyl)pyrrolo[3,2-b]pyridin-1-yl]ethanone]
32 | 79.4 | O=C(Cn1ccc2ncc(-c3ccc(F)cc3)cc21)C1CC1 [Example 222, 1-Cyclopropyl-2-[6-(4-fluorophenyl)pyrrolo[3,2-b]pyridin-1-yl]ethanone]
33 | 79.4 | Cc1c(F)ccc(-c2cnc3ccn(CC(=O)C(C)C)c3c2)c1C [Example 223, 1-[6-(4-Fluoro-2,3-dimethyl-phenyl)pyrrolo[3,2-b]pyridin-1-yl]-3-methyl-butan-2-one]
34 | 398 | CCc1cccc(-c2cnc3ccn(CC(=O)C(C)C)c3c2)c1 [Example 224, 1-[6-(3-Ethylphenyl)pyrrolo[3,2-b]pyridin-1-yl]-3-methyl-butan-2-one]
35 | 79.4 | Cc1cccc(-c2cnc3ccn(CC(=O)C(C)C)c3c2)c1C [Example 225, 1-[6-(2,3-Dimethylphenyl)pyrrolo[3,2-b]pyridin-1-yl]-3-methyl-butan-2-one]
36 | 200 | O=C(Cn1ccc2ncc(-c3ccc(F)cc3)cc21)c1ccccc1 [Example 226, 2-[6-(4-Fluorophenyl)pyrrolo[3,2-b]pyridin-1-yl]-1-phenyl-ethanone]
37 | 794 | O=C(Cn1ccc2ncc(-c3ccc(F)cc3)cc21)c1ccc(F)cc1 [Example 227, 1-(4-Fluorophenyl)-2-[6-(4-fluorophenyl)pyrrolo[3,2-b]pyridin-1-yl]ethanone]
38 | 501 | CC(C)NC(=O)Cn1ccc2ncc(-c3ccc(F)cc3)cc21 [Example 229, 2-[6-(4-Fluorophenyl)pyrrolo[3,2-b]pyridin-1-yl]-N-isopropyl-acetamide]
39 | 5010 | CCCNC(=O)Cn1ccc2ncc(-c3ccc(F)cc3)cc21 [Example 230, 2-[6-(4-Fluorophenyl)pyrrolo[3,2-b]pyridin-1-yl]-N-propyl-acetamide]
40 | 10000 | CC1(NC(=O)Cn2ccc3ncc(-c4ccc(F)cc4)cc32)CC1 [Example 232, 2-[6-(4-Fluorophenyl)pyrrolo[3,2-b]pyridin-1-yl]-N-(1-methylcyclopropyl)acetamide]
